Measurements: patent EP0286926A2, “Semi-synthetic rhodomycins, method for their preparation and their use as cytostatics” (BEHRINGWERKE Aktiengesellschaft, priority 1987, dated 1988)
Values after ≈ are worked out from the molar mass of the structure shown. Like-named read-outs stand apart in the source and are kept apart here.

System: L1210 Leukämiezellen
Assay: Colony formation of L1210 leukemia cells in soft agar
Format: cell-based, Maus
Conditions: Mus musculus
From the text: Die zytostatische Wirksamkeit der erfindungsgemäßen Verbindungen wurde anhand von L1210 Leukämiezellen der Maus getestet. Hierzu wurde die Koloniebildung von L1210 Leukämiezellen in Agarplatten herangezogen. Diese Methode dient zum Nachweis des Einflusses der Testsubstanzen auf das Wachstumsverhalten der Zellen nach Inkubation von 1 Stunde oder über mehrere Generationen. Bei einer Zelzykluszeit von 10-12 Stunden werden dabei in der Testzeit von 7 Tagen etwa 14 aufeinanderfolgende Generationen beobachtet. Die erfindungsgemäßen zytostatisch wirksamen Substanzen bewirken in diesem Test eine Reduktion der zu beobachtenden Koloniezahl gegenüber einer unbehandelten Kontrollprobe.
Einzelheiten des Testverfahrens ergeben sich aus der nachfolgenden Verfahrensweise zur Ermittlung der Koloniebildung.
Verfahrensweise zur Ermittlung der Koloniebildung von L1210 Leukämiezellen in Soft-Agar
500 Leukämiezellen pro Platte wurden mit unterschiedlichen Konzentrationen der Testsubstanz 1 Stunde bei 37°C inkubiert. Anschließend wurden die Zellen zweimal mit McCoy5A-Medium gewaschen und schließlich in Petrischalen nach Zugabe von 0,3 % Agar ausgegossen. Kontrollen wurden lediglich mit frischem Medium inkubiert. Anstelle der einstündigen Inkubation wurden in manchen Fällen unterschiedliche Konzentrationen und Testsubstanzen der oberen Agarschicht zugemischt, um so eine kontinuierliche Exposition der Zellen über die gesamte Inkubationszeit zu erreichen. Nach Erstarren des Agars wurden die Platten im Brutschrank 7 Tage bei 37°C inkubiert (5 Vol.-% CO₂, 94 % relative Luftfeuchtigkeit). Anschließend wurde die Zahl der entstandenen Kolonien mit einem Durchmesser von mehr als 60 µm gezählt. Die Ergebnisse wurden angegeben als Koloniezahl in behandelten Agarplatten in Prozent der unbehandelten Kontrolle. Aus der so erhaltenen Dosiswirkungskruve wurde die IC₅₀ als Maß für die Wirksamkeit der Substanz ermittelt. Die Ergebnisse für die hier beschriebenen Verbindungen im Vergleich zu Adriamycin sind in der nachfolgenden Tabelle 1 zusammengefaßt.

[1] = L1210, 168 h, continuous exposure: substance mixed into upper agar layer for the whole 7-day incubation at 37°C, colonies > 60 µm counted, percent of untreated control, read-out: Dauerinkubation IC50
[2] = L1210, 1 h incubation with substance at 37°C, cells washed twice, then plated in 0,3 % agar for 7 days, colonies > 60 µm counted, read-out: 1h-Inkubation IC50
[3] = L1210, 168 h, read-out: Dauerinkubation IC50
[4] = L1210, read-out: 1h-Inkubation IC50

SMILES	IC50 [1] [µg/mL]	IC50 [2] [µg/mL]	IC50 [3] [µg/mL]	IC50 [4] [µg/mL]
CC[C@@]1(O)C[C@H](O[C@H]2C[C@H](N)[C@@H](O)[C@H](C)O2)c2c(O)c3c(c(O)c2[C@H]1O[C@H]1C[C@H](N)[C@@H](O)[C@H](C)O1)C(=O)c1cccc(O)c1C3=O [Beispiel 33, 7,10-Di-O-α-L-acosaminyl-β-rhodomycinon]	> 1	> 1	–	–
CC[C@@]1(O)C[C@H](O[C@H]2C[C@H](N(C)C)[C@@H](O)[C@H](C)O2)c2c(O)c3c(c(O)c2[C@H]1O[C@H]1C[C@H](N(C)C)[C@@H](O)[C@H](C)O1)C(=O)c1cccc(O)c1C3=O [Beispiel 34]	–	–	0.026 (≈ 0.0371 µM)	0.09 (≈ 0.128 µM)
CC[C@@]1(O)C[C@H](O[C@H]2C[C@H](NC(=O)C(F)(F)F)[C@@H](OC(=O)c3ccc([N+](=O)[O-])cc3)[C@H](C)O2)c2c(O)c3c(c(O)c2[C@H]1O[C@H]1C[C@H](NC(=O)C(F)(F)F)[C@H](OC(=O)c2ccc([N+](=O)[O-])cc2)[C@H](C)O1)C(=O)c1cccc(O)c1C3=O [Beispiel 35, 7-0-(4-0-Paranitrobenzoyl-3-N-trifluoracetyl-α-L-acosaminyl)-10-0-(4-0-paranitrobenzoyl-3-N-trifluoracetyl-α-L-daunosaminyl)-β-rhodomycinon]	–	–	> 1	> 1
CC[C@@]1(O)C[C@H](O[C@H]2C[C@H](N)[C@@H](O)[C@H](C)O2)c2c(O)c3c(c(O)c2[C@H]1O[C@H]1C[C@H](N)[C@H](O)[C@H](C)O1)C(=O)c1cccc(O)c1C3=O [Beispiel 37, 7-O-α-L-Acosaminyl-10-0-α-L-daunosaminyl-β-rhodomycinon]	> 1	> 1	–	–
CC[C@@]1(O)C[C@H](O[C@H]2C[C@H](N(C)C)[C@H](OC(=O)c3ccccc3)[C@H](C)O2)c2c(O)c3c(c(O)c2[C@H]1O[C@H]1C[C@H](NC(=O)C(F)(F)F)[C@@H](OC(=O)c2ccc([N+](=O)[O-])cc2)[C@H](C)O1)C(=O)c1cccc(O)c1C3=O [Beispiel 38, 7-0-(4-0-Benzoyl-α-L-rhodosaminyl)-10-0-(4-0-paranitrobenzoyl-3-N-trifluoracetyl-α-L-acosaminyl)-β-rhodomycinon]	> 1	> 1	–	–
CC[C@@]1(O)C[C@H](O[C@H]2C[C@H](N(C)C)[C@H](O)[C@H](C)O2)c2c(O)c3c(c(O)c2[C@H]1O[C@H]1C[C@H](N)[C@@H](O)[C@H](C)O1)C(=O)c1cccc(O)c1C3=O [Beispiel 40, 10-0-α-L-Acosaminyl-7-0-α-L-rhodosaminyl-β-rhodomycinon]	0.85 (≈ 1.26 µM)	> 1	–	–
CC[C@@]1(O)C[C@H](O[C@H]2C[C@H](N)[C@H](O)[C@H](C)O2)c2c(O)c3c(c(O)c2[C@H]1O[C@H]1C=C[C@@H](O)[C@H](C)O1)C(=O)c1cccc(O)c1C3=O [Beispiel 42, 10-0-(2,3,6-Tridesoxy-α-L-erythro-hex-2-enopyranosyl)-7-0-α-L-daunosaminyl-β-rhodomycinon]	–	–	0.16 (≈ 0.255 µM)	> 1
CC[C@@]1(O[C@H]2C[C@H](N)[C@@H](O)[C@H](C)O2)C[C@H](O[C@H]2C[C@H](N)[C@@H](O)[C@H](C)O2)c2c(O)c3c(c(O)c2[C@H]1O[C@H]1C[C@H](N)[C@@H](O)[C@H](C)O1)C(=O)c1cccc(O)c1C3=O [Beispiel 44, 7,9,10-Tri-O-α-L-acosaminyl-β-rhodomycinon]	–	–	–	> 1
CC[C@@]1(O)C[C@H](O[C@H]2C[C@H](NC(=O)C(F)(F)F)[C@@H](O)[C@H](C)O2)c2c(O)c3c(c(O)c2[C@H]1O)C(=O)c1cccc(O)c1C3=O [Beispiel 45, 7-O-(3-N-Trifluoracetyl-α-L-acosaminyl)-ß-rhodomycinon]	–	0.29 (≈ 0.474 µM)	–	–
CC[C@@]1(O)C[C@H](O[C@H]2C[C@@H](N)[C@@H](O)[C@H](C)O2)c2c(O)c3c(c(O)c2[C@H]1O)C(=O)c1cccc(O)c1C3=O [Beispiel 46, 7-O-α-L-Ristosaminyl-β-rhodomycinon]	–	0.11 (≈ 0.213 µM)	–	–
CC[C@@]1(O)C[C@H](O[C@H]2C[C@H](N)[C@@H](OCc3ccccc3)[C@H](C)O2)c2c(O)c3c(c(O)c2[C@H]1O)C(=O)c1cccc(O)c1C3=O [Beispiel 48, 7-O-(4-O-Benzyl-α-L-acosaminyl)-β-rhodomycinon]	–	0.095 (≈ 0.157 µM)	–	–
CC[C@@]1(O)C[C@H](O[C@H]2C[C@H](NC(=O)C(F)(F)F)[C@@H](OCc3ccccc3)[C@H](C)O2)c2c(O)c3c(c(O)c2[C@H]1O)C(=O)c1cccc(O)c1C3=O [Beispiel 49, 7-O-(4-O-Benzyl-3-N-trifluoracetyl-α-L-acosaminyl)-β-rhodomycinon]	–	–	–	> 1
CC[C@@]1(O)C[C@H](O[C@@H]2O[C@@H](C)[C@H](O)[C@@H](O)[C@H]2I)c2c(O)c3c(c(O)c2[C@H]1O)C(=O)c1cccc(O)c1C3=O [Beispiel 50, 7-O-(2,6-Didesoxy-2-iodo-α-L-mannopyranosyl)-β-rhodomycinon]	0.1 (≈ 0.156 µM)	–	–	–
CC[C@@]1(O)C[C@H](O[C@H]2C[C@H](N)[C@@H](OCc3ccccc3)[C@H](C)O2)c2c(O)c3c(c(O)c2[C@H]1O[C@H]1C[C@H](N)[C@@H](OCc2ccccc2)[C@H](C)O1)C(=O)c1cccc(O)c1C3=O [Beispiel 51, 7,10-Di-O-(4-O-Benzyl-α-L-acosaminyl)-β-rhodomycinon]	0.4 (≈ 0.485 µM)	0.68 (≈ 0.824 µM)	–	–
CC[C@@]1(O)C[C@H](O[C@H]2C[C@H](NC(=O)C(F)(F)F)C[C@H](C)O2)c2c(O)c3c(c(O)c2[C@H]1O)C(=O)c1cccc(O)c1C3=O [Beispiel 52, 7-O-(4-Desoxy-3-N-trifluoracetyl-α-L-daunosaminyl)-β-rhodomycinon]	–	0.66 (≈ 1.11 µM)	–	–
CC[C@@]1(O)C[C@H](O[C@H]2C[C@H](N)C[C@H](C)O2)c2c(O)c3c(c(O)c2[C@H]1O)C(=O)c1cccc(O)c1C3=O [Beispiel 53, 7-O-(4-Desoxy-α-L-daunosaminyl)-β-rhodomycinon]	0.04 (≈ 0.0801 µM)	0.05 (≈ 0.1 µM)	–	–
